In ChEMBL document CHEMBL3108668, “Antitumor activity of jujuboside B and the underlying mechanism via induction of apoptosis and autophagy” (J Nat Prod, 2014):
Active and inactive are the calls of the source. The calls are words filed in the database; no cut-off is given here.

How the values were obtained:
AGS [1] = experiment: Induction of apoptosis in human AGS cells assessed as necrotic cells at 50 uM after 24 hrs by annexin V-FITC/propidium iodide staining-based flow cytometry (reference value: 0.12%); format: functional
AGS [2] = experiment: Induction of apoptosis in human AGS cells assessed as apoptotic cells at 25 uM after 24 hrs by annexin V-FITC/propidium iodide staining-based flow cytometry; format: functional
AGS [3] = experiment: Induction of apoptosis in human AGS cells assessed as formation of apoptotic bodies at >100 uM after 24 hrs by acridine orange staining-based microscopy; format: functional, cell-based
HCT-116 [4] = experiment: Induction of apoptosis in human HCT116 cells assessed as necrotic cells at 100 uM after 24 hrs by annexin V-FITC/propidium iodide staining-based flow cytometry (reference value: 0.68%); format: functional
HCT-116 [5] = experiment: Induction of autophagy in human HCT116 cells assessed as increase in LC3-2 level at 50 uM after 24 hrs by Western blotting analysis; format: functional, cell-based
HCT-116 [6] = experiment: Antitumor activity against human HCT116 cells xenografted in BALB/c nude mouse assessed as reduction of Ki-67 expression at 40 mg/kg, ip administered 3 times a week for 5 weeks by immunohistochemical analysis; format: functional, organism-based; set-up: dose 40 mg/kg
AGS [7] = experiment: Induction of autophagy in human AGS cells assessed as massive vacuole formation at 50 uM after 24 hrs by fluorescence microscopy; format: functional, cell-based
HCT-116 [8] = experiment: Induction of apoptosis in human HCT116 cells assessed as necrotic cells at 50 uM after 24 hrs by annexin V-FITC/propidium iodide staining-based flow cytometry (reference value: 0.68%); format: functional
HCT-116 [9] = experiment: Induction of apoptosis in human HCT116 cells assessed as late apoptotic cells at 50 uM after 24 hrs by annexin V-FITC/propidium iodide staining-based flow cytometry (reference value: 2.71%); format: functional
AGS [10] = experiment: Induction of apoptosis in human AGS cells assessed as late apoptotic cells at 25 uM after 24 hrs by annexin V-FITC/propidium iodide staining-based flow cytometry (reference value: 7.3%); format: functional
AGS [11] = experiment: Induction of apoptosis in human AGS cells assessed as reduction of caspase8 activation at 100 uM after 24 hrs by Western blotting analysis in presence of SP600125; format: functional, cell-based
HCT-116 [12] = experiment: Induction of apoptosis in human HCT116 cells assessed as cell shrinkage at >100 uM after 24 hrs by acridine orange staining-based microscopy; format: functional
HCT-116 [13] = experiment: Induction of apoptosis in human HCT116 cells assessed as early apoptotic cells at 50 uM after 24 hrs by annexin V-FITC/propidium iodide staining-based flow cytometry (reference value: 3.61%); format: functional
HCT-116 [14] = experiment: Induction of apoptosis in human HCT116 cells assessed as late apoptotic cells at 150 uM after 24 hrs by annexin V-FITC/propidium iodide staining-based flow cytometry (reference value: 2.71%); format: functional
AGS [15] = experiment: Induction of apoptosis in human AGS cells assessed as increase in pJNK level at 25 to 150 uM after 24 hrs by Western blotting analysis; format: functional, cell-based
HCT-116 [16] = experiment: Induction of autophagy in human HCT116 cells assessed as massive vacuole formation at 50 uM after 24 hrs by acridine orange staining-based fluorescence microscopy in presence of bafilomycin A1; format: functional, cell-based
AGS [17] = experiment: Induction of apoptosis in human AGS cells assessed as caspase-3 activation after 24 hrs by Western blotting analysis; format: functional, cell-based
AGS [18] = experiment: Induction of apoptosis in human AGS cells assessed as increase in pp38 level at 25 to 150 uM after 24 hrs by Western blotting analysis; format: functional, cell-based
AGS [19] = experiment: Induction of apoptosis in human AGS cells assessed as procaspase-9 level at 25 to 150 uM after 24 hrs by Western blotting analysis; format: functional, cell-based
AGS [20] = experiment: Induction of apoptosis in human AGS cells assessed as reduction of caspase3 activation at 100 uM after 24 hrs by Western blotting analysis in presence of SP600125; format: functional, cell-based
HCT-116 [21] = experiment: Induction of apoptosis in human HCT116 cells assessed as formation of apoptotic bodies at >100 uM after 24 hrs by acridine orange staining-based microscopy; format: functional, cell-based
AGS [22] = experiment: Induction of autophagy in human AGS cells assessed as massive vacuole formation at 50 uM after 24 hrs by acridine orange staining-based fluorescence microscopy in presence of bafilomycin A1; format: functional, cell-based
HCT-116 [23] = experiment: Induction of autophagy in human HCT116 cells assessed as massive vacuole formation at 50 uM after 24 hrs by fluorescence microscopy; format: functional, cell-based
HCT-116 [24] = experiment: Induction of apoptosis in human HCT116 cells assessed as late apoptotic cells at 100 uM after 24 hrs by annexin V-FITC/propidium iodide staining-based flow cytometry (reference value: 2.71%); format: functional
AGS [25] = experiment: Induction of apoptosis in human AGS cells assessed as caspase-9 activation at 25 to 150 uM after 24 hrs by Western blotting analysis; format: functional, cell-based
AGS [26] = experiment: Induction of apoptosis in human AGS cells assessed as increase in FasL level at 100 uM after 24 hrs by Western blotting analysis in presence of bafilomycin A1; format: functional, cell-based
AGS [27] = experiment: Induction of apoptosis in human AGS cells assessed as necrotic cells at 150 uM after 24 hrs by annexin V-FITC/propidium iodide staining-based flow cytometry (reference value: 0.12%); format: functional
AGS [28] = experiment: Induction of apoptosis in human AGS cells assessed as reduction of caspase8 activation at 100 uM after 24 hrs by Western blotting analysis in presence of SB202190; format: functional, cell-based
AGS [29] = experiment: Induction of apoptosis in human AGS cells assessed as early apoptotic cells at 25 uM after 24 hrs by annexin V-FITC/propidium iodide staining-based flow cytometry (reference value: 6.6%); format: functional
AGS [30] = experiment: Induction of apoptosis in human AGS cells assessed as cell rounding at >100 uM after 24 hrs by acridine orange staining-based microscopy; format: functional
AGS [31] = experiment: Induction of apoptosis in human AGS cells assessed as early apoptotic cells at 100 uM after 24 hrs by annexin V-FITC/propidium iodide staining-based flow cytometry (reference value: 6.6%); format: functional
AGS [32] = experiment: Induction of apoptosis in human AGS cells assessed as caspase-8 activation at 25 to 150 uM after 24 hrs by Western blotting analysis; format: functional, cell-based
AGS [33] = experiment: Induction of autophagy in human AGS cells assessed as massive vacuole formation at 50 uM after 24 hrs by acridine orange staining-based fluorescence microscopy; format: functional, cell-based
AGS [34] = experiment: Induction of apoptosis in human AGS cells assessed as late apoptotic cells at 50 uM after 24 hrs by annexin V-FITC/propidium iodide staining-based flow cytometry (reference value: 7.3%); format: functional
AGS [35] = experiment: Cell cycle arrest in human AGS cells assessed as accumulation at sub G1 phase at 200 uM after 24 hrs by propidium iodide staining-based flow cytometry; format: functional
AGS [36] = experiment: Induction of apoptosis in human AGS cells assessed as early apoptotic cells at 50 uM after 24 hrs by annexin V-FITC/propidium iodide staining-based flow cytometry (reference value: 6.6%); format: functional
AGS [37] = experiment: Cell cycle arrest in human AGS cells assessed as accumulation at sub G1 phase at 100 uM after 24 hrs by propidium iodide staining-based flow cytometry in presence of bafilomycin A1; format: functional

## CC(C)=C[C@H]1C[C@](C)(O)[C@@H]2[C@H]3CC[C@@H]4[C@@]5(C)CC[C@H](O[C@@H]6OC[C@H](O)[C@H](O[C@@H]7O[C@H](CO)[C@@H](O)[C@H](O)[C@H]7O[C@@H]7OC[C@@H](O)[C@H](O)[C@H]7O)[C@H]6O[C@@H]6O[C@@H](C)[C@H](O)[C@@H](O)[C@H]6O)C(C)(C)[C@@H]5CC[C@@]4(C)[C@@]34CO[C@@]2(C4)O1
AGS [1]
  Activity: 0.53%
AGS [2]
  Activity: 10.81%
AGS [3]
  Activity: Active
HCT-116 [4]
  Activity: 3.05%
HCT-116 [5]
  Activity: Active
HCT-116 [6]
  Activity: Active
AGS [7]
  Activity: Active
HCT-116 [8]
  Activity: 0.5%
HCT-116 [9]
  Activity: 2.53%
AGS [10]
  Activity: 5.24%
AGS [11]
  Activity: inactive
HCT-116 [12]
  Activity: Active
HCT-116 [13]
  Activity: 6.65%
HCT-116 [14]
  Activity: 17.9%
AGS [15]
  Activity: Active
HCT-116 [16]
  Activity: inactive
AGS [17]
  Activity: Dose-dependent effect
AGS [18]
  Activity: Active
AGS [19]
  Activity: inactive
AGS [20]
  Activity: inactive
HCT-116 [21]
  Activity: Active
AGS [22]
  Activity: inactive
HCT-116 [23]
  Activity: Active
HCT-116 [24]
  Activity: 9.74%
AGS [25]
  Activity: inactive
AGS [26]
  Activity: Active
AGS [27]
  Activity: 1.57%
AGS [28]
  Activity: inactive
AGS [29]
  Activity: 5.57%
AGS [30]
  Activity: Active
AGS [31]
  Activity: 16.41%
AGS [32]
  Activity: Active
AGS [33]
  Activity: Active
AGS [34]
  Activity: 7.05%
AGS [35]
  Activity: 49.65%
AGS [36]
  Activity: 8.73%
AGS [37]
  Activity: Active
